Values quoted from earlier work in paper PMC7238799 (Pulmonary Circulation, 2020).
Like-named read-outs stand apart in the source and are kept apart here.

Tests used:
[1] = cited from earlier work; for Half-life / Steady-state PTR: oral
healthy male subjects = settings: from 400 µg BID up to 1600–1800 µg BID; cited from earlier work
[2] = test system: prostacyclin (IP) receptor; settings: cited from earlier work
[3] = BID oral administration of selexipag

CC#CCC(C)[C@H](O)/C=C/[C@@H]1[C@H]2c3cccc(CCCC(=O)O)c3O[C@H]2C[C@H]1O (mixture of isomers) [beraprost]
Half-life ([1]; administered four times daily): 0.75 h

CCCCC[C@H](O)CC[C@@H]1[C@H]2Cc3cccc(OCC(=O)O)c3C[C@H]2C[C@H]1O [treprostinil]
Steady-state PTR ([1]; BID dosing): 7.0
Steady-state PTR ([1]; TID dosing): 2.5
Half-life ([1]; administered two or three times daily): 3 to 4 h

CC(C)N(CCCCOCC(=O)NS(C)(=O)=O)c1cnc(-c2ccccc2)c(-c2ccccc2)n1 [selexipag]
Treated subjects achieving full dose escalation (healthy male subjects): 67–81%

CC#CCC(C)[C@H](O)/C=C/[C@@H]1[C@H]2C/C(=C/CCCC(=O)O)C[C@H]2C[C@H]1O (stereo partly shown) [iloprost]
Maximal cAMP stimulation (efficacy percentage relative to iloprost) [2]: 100%
Type of IP receptor agonism [2]: full agonist

CC(C)N(CCCCOCC(=O)O)c1cnc(-c2ccccc2)c(-c2ccccc2)n1 [ACT-333679]
Maximal cAMP stimulation (efficacy percentage relative to iloprost) [2]: 48%
Type of IP receptor agonism [2]: weak partial agonist
Accumulation at steady-state [1, 3]: 1.02–1.27 fold
Mean steady-state PTR [1, 3]: 5.6–6.5
Effective half-life (EHL) ([1]; active metabolite of selexipag): 3 to 4 h
Terminal elimination half-life ([1]; active metabolite of selexipag): 6.2 to 13.5 h
